# Assay results from patent US12479843B2, “Spiro ring-containing quinazoline compounds” (WIGEN BIOMEDICINE TECHNOLOGY (SHANGHAI) CO., LTD., priority 2019, dated 2025).
# Tests used:
# pERK level in H358 cells = experiment: pERK and ERK protein content assay in H358 cells (ELISA); assay type: cell-based; details: Homo sapiens, NCI-H358, compound 1 μM, 24 h, pERK/ERK ratio compared with DMSO group, read-out: Inhibition rate (%) of pERK level
# How it was run: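 H358 cells grown one day, then treated 24 h with compound at 1 μM. pERK and ERK in lysates measured by ELISA; pERK/ERK ratio expressed as percent inhibition versus DMSO.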
# H358 cells = experiment: Antiproliferative activity against H358 cells (Cell Titer Glow, ultra-low attachment plate); assay type: cell-based; details: Homo sapiens, NCI-H358, 72 h, 96-well ultra-low attachment plate, three days after addition of compound, Cell Titer Glow
# Procedure: 2500 H358 cells were seeded in a 96-well ultra-low attachment plate (corning, 7007). After one day of growth, a serially diluted compound (a maximum concentration of 5 μM, 5-fold dilution, a total of five doses) was added. Three days after the addition of the compound, Cell Titer Glow (Promega, G9681) was added to evaluate pellet growth, and the IC50 value was calculated.
SMILES,inhibition at 1 µM (pERK level in H358 cells) [%],IC50 (H358 cells) [nM]
C=CC(=O)N1CC2(CCN(c3nc(N4CC(N5CCC[C@@H]5CO)C4)nc4c(OCC(F)(F)F)c(-c5c(C)ccc6[nH]ncc56)c(C5CC5)cc34)CC2)C1 [Compound 251],> 90,< 300
C=CC(=O)N1CC2(CCN(c3nc(N4CC(N5CCC[C@H]5CO)C4)nc4c(OCC(F)(F)F)c(-c5c(C)ccc6[nH]ncc56)c(C5CC5)cc34)CC2)C1 [Compound 252],> 90,< 300
C=CC(=O)N1CC2(CCN(c3nc(N4CC(N5CC[C@H](C(C)(C)O)C5)C4)nc4c(OCC(F)(F)F)c(-c5c(C)ccc6[nH]ncc56)c(C5CC5)cc34)CC2)C1 [Compound 253],> 90,300 to 1000
C=CC(=O)N1CC2(CCN(c3nc(N4CC(N5CC[C@@H](C(C)(C)O)C5)C4)nc4c(OCC(F)(F)F)c(-c5c(C)ccc6[nH]ncc56)c(C5CC5)cc34)CC2)C1 [Compound 254],> 90,300 to 1000
C=CC(=O)N1CC2(CCN(c3nc(N4CC(N5CC[C@H](N(C)C)C5)C4)nc4c(OCC(F)(F)F)c(-c5c(C)ccc6[nH]ncc56)c(C5CC5)cc34)CC2)C1 [Compound 255],> 90,< 300
C=CC(=O)N1CC2(CCN(c3nc(N4CC(N5CC[C@@H](N(C)C)C5)C4)nc4c(OCC(F)(F)F)c(-c5c(C)ccc6[nH]ncc56)c(C5CC5)cc34)CC2)C1 [Compound 256],> 90,< 300
C=CC(=O)N1CC2(CCN(c3nc(N4CC(N5CC[C@H](C#N)C5)C4)nc4c(OCC(F)(F)F)c(-c5c(C)ccc6[nH]ncc56)c(C5CC5)cc34)CC2)C1 [Compound 257],> 90,300 to 1000
C=CC(=O)N1CC2(CCN(c3nc(N4CC(N5CC[C@@H](C#N)C5)C4)nc4c(OCC(F)(F)F)c(-c5c(C)ccc6[nH]ncc56)c(C5CC5)cc34)CC2)C1 [Compound 258],> 90,300 to 1000
C=CC(=O)N1CC2(CCN(c3nc(N4CC(N5C[C@@H](O)C[C@H]5C)C4)nc4c(OCC(F)(F)F)c(-c5c(C)ccc6[nH]ncc56)c(C5CC5)cc34)CC2)C1 [Compound 259],> 90,< 300
C=CC(=O)N1CC2(CCN(c3nc(N4CC(N5C[C@H](O)C[C@H]5C)C4)nc4c(OCC(F)(F)F)c(-c5c(C)ccc6[nH]ncc56)c(C5CC5)cc34)CC2)C1 [Compound 260],> 90,< 300
C=CC(=O)N1CC2(CCN(c3nc(N4CC(N5C[C@H](O)[C@@H](F)C5)C4)nc4c(OCC(F)(F)F)c(-c5c(C)ccc6[nH]ncc56)c(C5CC5)cc34)CC2)C1 [Compound 261],> 90,< 300
C=CC(=O)N1CC2(CCN(c3nc(N4CC(N5C[C@@H](O)[C@@H](F)C5)C4)nc4c(OCC(F)(F)F)c(-c5c(C)ccc6[nH]ncc56)c(C5CC5)cc34)CC2)C1 [Compound 262],> 90,< 300
C=CC(=O)N1CC2(CCN(c3nc(N4CC(N5C[C@H](OC)[C@@H](F)C5)C4)nc4c(OCC(F)(F)F)c(-c5c(C)ccc6[nH]ncc56)c(C5CC5)cc34)CC2)C1 [Compound 263],> 90,< 300
C=CC(=O)N1CC2(CCN(c3nc(N4CC(N5C[C@H](F)[C@H](OC)C5)C4)nc4c(OCC(F)(F)F)c(-c5c(C)ccc6[nH]ncc56)c(C5CC5)cc34)CC2)C1 [Compound 264],> 90,< 300
C=CC(=O)N1CC2(CCN(c3nc(N4CC(N5C[C@@H](C)[C@@H](O)C5)C4)nc4c(OCC(F)(F)F)c(-c5c(C)ccc6[nH]ncc56)c(C5CC5)cc34)CC2)C1 [Compound 265],> 90,< 300
C=CC(=O)N1CC2(CCN(c3nc(N4CC(N5C[C@@H](C)[C@@H](OC)C5)C4)nc4c(OCC(F)(F)F)c(-c5c(C)ccc6[nH]ncc56)c(C5CC5)cc34)CC2)C1 [Compound 266],> 90,< 300
C=CC(=O)N1CC2(CCN(c3nc(N4CC(N5C[C@@H](F)[C@@H](F)C5)C4)nc4c(OCC(F)(F)F)c(-c5c(C)ccc6[nH]ncc56)c(C5CC5)cc34)CC2)C1 [Compound 267],> 90,< 300
C=CC(=O)N1CC2(CCN(c3nc(N4CC(N5CCC(C)CC5)C4)nc4c(OCC(F)(F)F)c(-c5c(C)ccc6[nH]ncc56)c(C5CC5)cc34)CC2)C1 [Compound 268],> 90,< 300
C=CC(=O)N1CC2(CCN(c3nc(N4CC(N5CCC(C)(C)CC5)C4)nc4c(OCC(F)(F)F)c(-c5c(C)ccc6[nH]ncc56)c(C5CC5)cc34)CC2)C1 [Compound 269],> 90,< 300
C=CC(=O)N1CC2(CCN(c3nc(N4CC(N5C6CCC5CC6)C4)nc4c(OCC(F)(F)F)c(-c5c(C)ccc6[nH]ncc56)c(C5CC5)cc34)CC2)C1 [Compound 270],> 90,< 300
C=CC(=O)N1CC2(CCN(c3nc(N4CC5(C4)[C@@H](O)CCN5C)nc4c(OCC(F)(F)F)c(-c5c(C)ccc6[nH]ncc56)c(C5CC5)cc34)CC2)C1 [Compound 271],> 90,< 300
